Experiments:
Type in all cases: physicochemical
[1] = TGA (Thermogravimetric Analysis) weight loss
Method: The weight loss for the sample was obtained using a TA Instruments TGA […] thermogravimetric calorimeter. The sample was analyzed as received and was program heated from ambient to 120° C. at 10° C./min under nitrogen purge.

[2] = DVS (Dynamic Vapor Sorption) cycling humidity, hygroscopicity; conditions: full cycle in step mode at 25° C., 0-90% RH in 10% RH increments
Method: (§1) A representative sample of crystalline form (IS-VI) was subjected to DVS (Dynamic Vapor Sorption) cycling humidity conditions to determine hydgroscopicity, as shown in FIG. 4. The sample was analyzed using a Surface Measurement System DVS-1 Dynamic Vapor Sorption System. The sample was analyzed full cycle in step mode at 25° C. from 0-90% RH in 10% RH increments. The equilibration conditions set were: dm/dt of 0.0007%/min, dm/dt window of 5 minutes, and minimum and maximum stages of 15 and 360 minutes. Data was collected in 1 minute intervals. Nitrogen was used as the carrier gas. The results from the DVS measurements indicate that crystalline form (IS-VI) is non-hygoscopic

[3] = Stability to temperature and humidity, concluded from DSC, TGA and DVS results; conditions: solid state; conclusion from the results above
Method: DSC (Differential Scanning Calorimetry) was measured for a representative sample of crystalline form (IS-VI), as shown in FIG. 2. DSC analysis of the sample was performed using a TA Instruments DSC Q1000 differential scanning calorimeter. The sample was analyzed as received in an open TA Instrument aluminum sample pan and was program heated from ambient to 120° C. at 10° C./min under nitrogen purge.
The weight loss for the sample was obtained using a TA Instruments TGA Q5000IR thermogravimetric calorimeter. The sample was analyzed as received and was program heated from ambient to 120° C. at 10° C./min under nitrogen purge.
as §1

- hydrate state indicated by TGA ([1]; ambient to 120° C. at 10° C./min under nitrogen purge): non-hydrate
- weight loss by TGA ([1]; heated from ambient to 120° C. at 10° C./min under nitrogen purge, ambient temperature up to and including melting): No weight loss was observed
- hygroscopicity by DVS [2]: non-hygoscopic
Compound: NS(=O)(=O)NC[C@H]1COc2cc(Cl)ccc2O1 [crystalline form (IS-VI), (2S)-(−)-N-(6-chloro-2,3-dihydro-benzo[1,4]dioxin-2-ylmethyl)-sulfamide]
- stability to temperature and humidity [3]: exhibits stability to temperature and humidity
